From patent publication US10093683B2, “Factor XIa inhibitors” (Merck Sharp & Dohme Corp., priority 2014, dated 2018)
Read-outs that look alike come from different tables or passages of the source.

Target: human Factor XIa (Homo sapiens (Human), UniProt P03951)
Assay: Factor XIa Assay
Assay type: biochemical
Conditions: read-out: FXIa Ki
Procedure, shortened: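 Ki derived from the dependence of Vo/Vi on inhibitor concentration under a competitive-inhibition model, after pre-equilibration of enzyme and inhibitor. Reaction: 40 pM human FXIa, 100 μM Z-Gly-Pro-Arg-AFC, HEPES 50 mM pH 7.4 with NaCl, CaCl2 and PEG 8000; run at room temperature or 37° C.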

[1] = purified human Factor XIa 40 pM, Z-Gly-Pro-Arg-AFC 100 μM, pH 7.4

human Factor XIa, sequence (P03951 388-625): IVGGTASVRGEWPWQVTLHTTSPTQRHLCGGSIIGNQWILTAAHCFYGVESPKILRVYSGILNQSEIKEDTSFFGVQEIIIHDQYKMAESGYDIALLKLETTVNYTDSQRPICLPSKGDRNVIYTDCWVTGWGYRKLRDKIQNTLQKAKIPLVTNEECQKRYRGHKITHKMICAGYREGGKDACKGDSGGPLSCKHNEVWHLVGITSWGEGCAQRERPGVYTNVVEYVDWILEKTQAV
human Factor XIa, sequence (P03951 19-387 partner): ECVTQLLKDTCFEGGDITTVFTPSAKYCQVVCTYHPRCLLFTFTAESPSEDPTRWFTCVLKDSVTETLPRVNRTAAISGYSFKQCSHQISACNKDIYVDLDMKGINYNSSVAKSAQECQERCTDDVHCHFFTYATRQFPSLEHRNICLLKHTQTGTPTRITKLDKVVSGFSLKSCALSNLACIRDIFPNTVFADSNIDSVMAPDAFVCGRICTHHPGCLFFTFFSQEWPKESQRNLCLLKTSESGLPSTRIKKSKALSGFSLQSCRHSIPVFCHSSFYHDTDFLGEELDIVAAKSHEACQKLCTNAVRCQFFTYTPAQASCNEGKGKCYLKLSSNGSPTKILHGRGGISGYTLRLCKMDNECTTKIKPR

| SMILES | Ki [1] [µM] | Ki [µM] |
| --- | --- | --- |
| COC(=O)Nc1ccc(C(=O)N[C@@H](CCN2CCC2)C(=O)N2CC[C@@]3(C2)OC(=O)Nc2ccc(Cl)cc23)cc1 [Example 112, methyl (4-(((S)-4-(azetidin-1-yl)-1-((R)-6-chloro-2-oxo-1,2-dihydrospiro[benzo[d][1,3]oxazine-4,3′-pyrrolidin]-1′-yl)-1-oxobutan-2-yl)carbamoyl)phenyl)carbamate] | 0.219 | – |
| O=C1Nc2ccc(Cl)c(F)c2[C@@]2(CCCN(C(=O)[C@H](Cc3cncnc3)NC(=O)c3ccc4[nH]c(=O)ccc4c3)C2)O1 [Example 113, N-((S)-1-((R)-6-chloro-5-fluoro-2-oxo-1,2-dihydrospiro[benzo[d][1,3]oxazine-4,3′-piperidin]-1′-yl)-1-oxo-3-(pyrimidin-5-yl)propan-2-yl)-2-oxo-1,2-dihydroquinoline-6-carboxamide] | 0.0156 | – |
| O=C1Nc2ccc(Cl)c(F)c2[C@@]2(CCCN(C(=O)[C@H](Cc3cnccn3)NC(=O)c3ccc4[nH]c(=O)ccc4c3)C2)O1 [Example 114, N-((S)-1-((R)-6-chloro-5-fluoro-2-oxo-1,2-dihydrospiro[benzo[d][1,3]oxazine-4,3′-piperidin]-1′-yl)-1-oxo-3-(pyrazin-2-yl)propan-2-yl)-2-oxo-1,2-dihydroquinoline-6-carboxamide] | 0.0744 | – |
| O=C1Nc2ccc(Cl)cc2[C@]2(CCN(C(=O)[C@@H](Cc3ccccc3)C(=O)Nc3ccc(C(=O)O)cc3)C2)O1 [Example 121a, 4-((S)-2-benzyl-3-((S)-6-chloro-2-oxo-1,2-dihydrospiro[benzo[d][1,3]oxazine-4,3′-pyrrolidin]-1′-yl)-3-oxopropanamido)benzoic acid] | ≥ 5 | – |
| O=C1Nc2ccc(Cl)cc2[C@]2(CCN(C(=O)[C@H](Cc3ccccc3)C(=O)Nc3ccc(C(=O)O)cc3)C2)O1 [Example 121b, 4-((R)-2-benzyl-3-((S)-6-chloro-2-oxo-1,2-dihydrospiro[benzo[d][1,3]oxazine-4,3′-pyrrolidin]-1′-yl)-3-oxopropanamido)benzoic acid] | ≥ 5 | – |
| O=C1Nc2ccc(Cl)cc2[C@@]2(CCN(C(=O)[C@H](Cc3ccccc3)C(=O)Nc3ccc(C(=O)O)cc3)C2)O1 [Example 121c, 4-((R)-2-benzyl-3-((R)-6-chloro-2-oxo-1,2-dihydrospiro[benzo[d][1,3]oxazine-4,3′-pyrrolidin]-1′-yl)-3-oxopropanamido)benzoic acid] | 0.439 | – |
| O=C1Nc2ccc(Cl)cc2[C@@]2(CCCN(C(=O)C(Cc3ccc(F)cc3)c3nc(Cl)c(-c4ccc(F)cc4)[nH]3)C2)O1 (stereo partly drawn) [Example 127, (4R)-6-chloro-1′-(2-(4-chloro-5-(4-fluorophenyl)-1H-imidazol-2-yl)-3-(4-fluorophenyl)propanoyl)spiro[benzo[d][1,3]oxazine-4,3′-piperidin]-2(1H)-one] | 5 | – |
| O=C1Nc2ccc(Cl)cc2[C@@]2(CCCN(C(=O)C(Cc3ccc(F)cc3)c3nc(Cl)c(-c4ccc(C(=O)O)cc4)[nH]3)C2)O1 (stereo partly drawn) [Example 128, 4-(4-chloro-2-(1-((R)-6-chloro-2-oxo-1,2-dihydrospiro[benzo[d][1,3]oxazine-4,3′-piperidin]-1′-yl)-3-(4-fluorophenyl)-1-oxopropan-2-yl)-1H-imidazol-5-yl)benzoic acid] | 8.75 | – |
| COC(=O)Nc1ccc2[nH]c([C@@H](Cc3ccccc3)C(=O)N3CC[C@@]4(C3)OC(=O)Nc3ccc(Cl)cc34)nc2c1 [Example 131c, methyl (2-((R)-1-((R)-6-chloro-2-oxo-1,2-dihydrospiro[benzo[d][1,3]oxazine-4,3′-pyrrolidin]-1′-yl)-1-oxo-3-phenylpropan-2-yl)-1H-benzo[d]imidazol-5-yl)carbamate] | 0.354 | – |
| COC(=O)Nc1ccc2[nH]c([C@@H](Cc3ccccc3)C(=O)N3CC[C@]4(C3)OC(=O)Nc3ccc(Cl)cc34)nc2c1 [Example 131d, methyl (2-((R)-1-((S)-6-chloro-2-oxo-1,2-dihydrospiro[benzo[d][1,3]oxazine-4,3′-pyrrolidin]-1′-yl)-1-oxo-3-phenylpropan-2-yl)-1H-benzo[d]imidazol-5-yl)carbamate] | 5 | – |
| O=C1Nc2ccc(Cl)cc2[C@@]2(CCCN(C(=O)C(Cc3ccc(F)cc3)c3nc4ccc(F)cc4[nH]3)C2)O1 (stereo partly drawn) [Example 133, (4R)-6-chloro-1′-(2-(6-fluoro-1H-benzo[d]imidazol-2-yl)-3-(4-fluorophenyl)propanoyl)spiro[benzo[d][1,3]oxazine-4,3′-piperidin]-2(1H)-one] | 8.75 | – |
| O=C1Nc2ccc(Cl)cc2[C@@]2(CCCN(C(=O)C(CC3CC3)Nc3n[nH]c4cc(F)ccc34)C2)O1 (stereo partly drawn) [Example 135, (4R)-6-chloro-1′-(3-cyclopropyl-2-((6-fluoro-1H-indazol-3-yl)amino)propanoyl)spiro[benzo[d][1,3]oxazine-4,3′-piperidin]-2(1H)-one] | > 8.75 | – |
| COC(=O)Nc1ccc2onc(N[C@@H](Cc3ccccc3)C(=O)N3CCC[C@@]4(C3)OC(=O)Nc3ccc(Cl)cc34)c2c1 [Example 138, methyl (3-(((S)-1-((R)-6-chloro-2-oxo-1,2-dihydrospiro[benzo[d][1,3]oxazine-4,3′-piperidin]-1′-yl)-1-oxo-3-phenylpropan-2-yl)amino)benzo[d]isoxazol-5-yl)carbamate] | 8.75 | – |
| NS(=O)(=O)c1ccc(C(=O)N[C@@H](Cc2ccccc2)C(=O)N2CCC3(C2)OC(=O)Nc2ccc(Cl)cc23)cc1 (stereo partly drawn) [Example 139, N-((2S)-1-(6-chloro-2-oxo-1,2-dihydrospiro[benzo[d][1,3]oxazine-4,3′-pyrrolidin]-1′-yl)-1-oxo-3-phenylpropan-2-yl)-4-sulfamoylbenzamide] | – | 0.928 |
| O=C1Nc2ccc(Cl)cc2C2(CCN(C(=O)[C@H](Cc3ccccc3)NC(=O)c3ccc4[nH]ncc4c3)C2)O1 (stereo partly drawn) [Example 142] | – | 0.0484 |
| Cc1nccnc1C(=O)N[C@@H](Cc1ccccc1)C(=O)N1CCC2(C1)OC(=O)Nc1ccc(Cl)cc12 (stereo partly drawn) [Example 145] | – | 3.32 |
| Cc1nc(C(=O)N[C@@H](Cc2ccccc2)C(=O)N2CCC3(C2)OC(=O)Nc2ccc(Cl)cc23)co1 (stereo partly drawn) [Example 146] | – | 5 |
| COc1ccc(C(=O)N[C@@H](Cc2ccccc2)C(=O)N2CCC3(C2)OC(=O)Nc2ccc(Cl)cc23)nc1 (stereo partly drawn) [Example 147] | – | 4.03 |

Next, values leading:

| Ki [1] [µM] | Ki [µM] | SMILES |
| --- | --- | --- |
| 3.78 | – | O=C1Nc2ccc(Cl)cc2[C@@]2(CCN(C(=O)[C@@H](Cc3ccccc3)C(=O)Nc3ccc(C(=O)O)cc3)C2)O1 [Example 121d, 4-((S)-2-benzyl-3-((R)-6-chloro-2-oxo-1,2-dihydrospiro[benzo[d][1,3]oxazine-4,3′-pyrrolidin]-1′-yl)-3-oxopropanamido)benzoic acid] |
| 0.0336 | – | COC(=O)Nc1ccc(-c2c[nH]c([C@@H](Cc3ccccc3)C(=O)N3CC[C@@]4(C3)OC(=O)Nc3ccc(Cl)cc34)n2)cc1 [Example 122a, methyl (4-(2-((R)-1-((R)-6-chloro-2-oxo-1,2-dihydrospiro[benzo[d][1,3]oxazine-4,3′-pyrrolidin]-1′-yl)-1-oxo-3-phenylpropan-2-yl)-1H-imidazol-4-yl)phenyl)carbamate] |
| 4.69 | – | COC(=O)Nc1ccc(-c2c[nH]c([C@H](Cc3ccccc3)C(=O)N3CC[C@]4(C3)OC(=O)Nc3ccc(Cl)cc34)n2)cc1 [Example 122b, methyl (4-(2-((S)-1-((S)-6-chloro-2-oxo-1,2-dihydrospiro[benzo[d][1,3]oxazine-4,3′-pyrrolidin]-1′-yl)-1-oxo-3-phenylpropan-2-yl)-1H-imidazol-4-yl)phenyl)carbamate] |
| 5 | – | COC(=O)Nc1ccc(-c2c[nH]c([C@@H](Cc3ccccc3)C(=O)N3CC[C@]4(C3)OC(=O)Nc3ccc(Cl)cc34)n2)cc1 [Example 122c, methyl (4-(2-((R)-1-((S)-6-chloro-2-oxo-1,2-dihydrospiro[benzo[d][1,3]oxazine-4,3′-pyrrolidin]-1′-yl)-1-oxo-3-phenylpropan-2-yl)-1H-imidazol-4-yl)phenyl)carbamate] |
| 0.364 | – | COC(=O)Nc1ccc(-c2c[nH]c([C@H](Cc3ccccc3)C(=O)N3CC[C@@]4(C3)OC(=O)Nc3ccc(Cl)cc34)n2)cc1 [Example 122d, methyl (4-(2-((S)-1-((R)-6-chloro-2-oxo-1,2-dihydrospiro[benzo[d][1,3]oxazine-4,3′-pyrrolidin]-1′-yl)-1-oxo-3-phenylpropan-2-yl)-1H-imidazol-4-yl)phenyl)carbamate] |
| 0.209 | – | O=C1Nc2ccc(Cl)c(F)c2[C@@]2(CCCN(C(=O)C(Cc3ccccc3)c3nc(-c4csc(C(=O)O)c4F)c[nH]3)C2)O1 (stereo partly drawn) [Example 124, 4-(2-(1-((R)-6-chloro-5-fluoro-2-oxo-1,2-dihydrospiro[benzo[d][1,3]oxazine-4,3′-piperidin]-1′-yl)-1-oxo-3-phenylpropan-2-yl)-1H-imidazol-4-yl)-3-fluorothiophene-2-carboxylic acid] |
| > 0.875 | – | COC(=O)Nc1ccc(-c2nnc([C@H](Cc3ccccc3)C(=O)N3CC[C@@]4(C3)OC(=O)Nc3ccc(Cl)c(F)c34)o2)cc1 [Example 129A, methyl (4-(5-((S)-1-((R)-6-chloro-5-fluoro-2-oxo-1,2-dihydrospiro[benzo[d][1,3]oxazine-4,3′-pyrrolidin]-1′-yl)-1-oxo-3-phenylpropan-2-yl)-1,3,4-oxadiazol-2-yl)phenyl)carbamate] |
| 0.0919 | – | COC(=O)Nc1ccc(-c2ncc(C(Cc3ccccc3)C(=O)N3CC[C@@]4(C3)OC(=O)Nc3ccc(Cl)c(F)c34)[nH]2)cc1 (stereo partly drawn) [Example 130, methyl (4-(5-(1-((R)-6-chloro-5-fluoro-2-oxo-1,2-dihydrospiro[benzo[d][1,3]oxazine-4,3′-pyrrolidin]-1′-yl)-1-oxo-3-phenylpropan-2-yl)-1H-imidazol-2-yl)phenyl)carbamate] |
| > 0.875 | – | COC(=O)Nc1ccc2[nH]c(C(Cc3ccccc3)C(=O)N3CCC[C@@]4(C3)OC(=O)Nc3ccc(Cl)c(F)c34)cc2c1 (stereo partly drawn) [Example 134, methyl (2-(1-((R)-6-chloro-5-fluoro-2-oxo-1,2-dihydrospiro[benzo[d][1,3]oxazine-4,3′-piperidin]-1′-yl)-1-oxo-3-phenylpropan-2-yl)-1H-indol-5-yl)carbamate] |
